{
  "source": "patent US3984410A",
  "about": "“Isourea acetylphosphate insecticides” (priority 1975, dated 1976)",
  "type_in_all_cases": "in vivo",
  "key": {"[1]": {"test_system": "housefly (Musca domestica L.)", "test": "Housefly mortality, residue on aluminum dishes", "settings": "25 3-day old female houseflies; mortality after 48 hours", "description": "Test compounds are diluted in acetone and aliquots are pipetted onto the bottom of 55 × 15 mm aluminum dishes. To insure even spreading of the chemical on the bottom of the dishes, 1 ml of acetone containing 0.02% peanut oil is also added to each dish. After all solvents have evaporated the dishes are placed in circular cardboard cages containing 25 3-day old female houseflies. The cages are covered on the bottom with cellophane and the top with tulle netting, and each contains a sugar-water saturated cotton plug for maintenance of the flies. Mortality is recorded after 48 hours. Test levels range from 100 μg/25 F. houseflies down to that at which approximately 50% mortality occurs."}, "[2]": {"test_system": "Southern House Mosquito [Culex pipiens quinquefasciatus (Say)]", "test": "Southern House Mosquito larvae in aqueous solution", "settings": "48 h, read-out: Insecticide Activity - Approximate LD50, MOS (Southern House Mosquito)", "description": "Insecticidal activity is determined using third-instar larvae of the mosquito (Culex pipiens quinquefasciatus). Ten larvae are placed in a 6-ounce, number 67 Dixie wax paper cup containing 100 ml of an aqueous solution of the test chemical. The treated larvae are stored at 70°F, and 48 hours later the mortality is recorded. Test concentrations range from 0.5 PPM down to that at which approximately 50% mortality occurs."}, "[3]": {"test_system": "Lygus Bug [Lygus hesperus (Knight)]", "test": "Lygus Bug spray", "settings": "spray on adult bugs; mortality after 48 hours", "description": "Test compounds are in a 50--50 acetone-water solution. Two cc of the solutions are sprayed through a Devilbiss type EGA hand spray gun into circular cardboard cages containing one string bean pod and ten adult lygus bugs. The test cages are covered on the bottom with cellophane and the top with tulle netting. Percent mortality is recorded 48 hours later. Test concentrations range from 0.05% down to that at which approximately 50% mortality occurs."}, "[4]": {"test_system": "German Cockroach [Blattella germanica (Linne)]", "test": "German Cockroach spray", "settings": "spray on 1-month-old nymphs; mortality after 7 days", "description": "Test compounds are diluted in a 50--50 acetone-water solution. Two cc of the solutions are sprayed through a DeVilbiss type EGA hand spray gun into circular cardboard cages containing 10 l-month-old German cockroach nymphs. The test cages are covered on the bottom with cellophane and the top with tulle netting. Percent mortality is recorded 7 days later. Test concentrations range from 0.1% down to that at which approximately 50% mortality occurs."}, "[5]": {"test_system": "Black Bean Aphid [Aphis fabae (Scop.)]", "test": "Systemic Assay on Black Bean Aphid", "settings": "168 h, systemic, chemical in soil, mortality after 7 days, read-out: Insecticide Activity - Approximate LD50, BAS (Black Bean Aphid - systemic)", "description": "Test chemicals are diluted in acetone and aliquots are thoroughly mixed into 500 grams of dry, sandy loam soil. The treated soil is placed in a pint ice cream carton and a nasturtium plant (Tropaeolum sp.) approximately 5 cm tall is transplanted into each carton. The plants are then infested with approximately 25 black bean aphids of mixed ages and placed in the greenhouse. Seven days later mortality is recorded. Test concentrations range from 10 PPM down to that at which approximately 50% mortality occurs."}, "[6]": {"test_system": "Green Peach Aphid [Myzus persicae (Sulzer)]", "test": "Green Peach Aphid spray on radish plants", "settings": "sprayed to runoff on radish plants; mortality after 48 hours", "description": "Radish plants (Rhaphanus sativus), approximately 2 cm tall, are transplanted into sandy loam soil in 3-inch clay pots and infested with 25-50 green peach aphids of mixed ages. Twenty-four hours later they are sprayed, to the point of runoff, with 50--50 acetone-water solutions of the test chemicals. Treated plants are held in the greenhouse and mortality is recorded after 48 hours. Test concentrations range from 0.05% down to that at which 50% mortality occurs."}, "[7]": {"test_system": "Black Bean Aphid [Aphis fabae (Scop.)]", "test": "Direct Spray Assay on Black Bean Aphid", "settings": "direct spray on nasturtium plants; mortality after 7 days", "description": "Nasturtium plants (Tropaeolum sp.), approximately 5 cm tall, are transplanted into sandy loam soil in 3-inch clay pots and infested with 25-50 black bean aphids of mixed ages. Twenty-four hours later they are sprayed, to the point of runoff, with 50--50 acetone-water solutions of the test chemicals. Treated plants are held in the greenhouse and mortality is recorded after 7 days. Test concentrations range from 0.05% down to that at which 50% mortality occurs."}, "[8]": {"test_system": "Cabbage Looper [Trichoplusia ni (Hubner)]", "test": "Cabbage Looper on dipped squash cotyledons", "settings": "second-instar larvae, cotyledon dip; 48 hours plus 5 days", "description": "(§1) Test compounds are diluted in a 50--50 acetone-water solution. Cotyledons of hyzini squash (Calabacita abobrinha), approximately 1 × 1.5 inches, are immersed in the test solutions for 2-3 seconds and placed on a wire screen to dry. The dried leaves are placed in petri dishes containing a moistened piece of filter paper and infested with five second-instar cabbage looper larvae. Mortality of the larvae is recorded 48 hours later, and a piece of synthetic media is added to dishes containing survivors. These are then held for 5 additional days to observe for any delayed effects of the test chemicals. Test concentrations range from 0.1% down to that at which approximately 50% mortality occurs."}, "[9]": {"test_system": "Tobacco Budworm [Heliothis virescens (F.)]", "test": "Tobacco Budworm on dipped Romaine lettuce leaves", "settings": "larvae, Romaine lettuce leaf dip; 48 hours plus 5 days", "description": "as §1\nThe procedure is the same as that used for the cabbage looper, except that sections of Romaine lettuce (Latica sativa) leaves were used instead of cotyledons of hyzini squash."}},
  "data": [
    {"smiles": "CCN(C(=NC(=O)CSP(=S)(OC)OC)OC)c1cccc(C)c1", "note": "[Compound 19]", "values": [
      {"measurement": "Insecticide Activity - Approximate LD50, HF (Housefly)", "setting": "[1]", "value": 62, "unit": "μg/25 F."},
      {"measurement": "LC50", "setting": "[2]", "value": "> 1", "unit": "µg/mL"},
      {"measurement": "Insecticide Activity - Approximate LD50, LB (Lygus Bug)", "setting": "[3]", "value": "> .05%"},
      {"measurement": "Insecticide Activity - Approximate LD50, GR (German Cockroach)", "setting": "[4]", "value": "> .1%"},
      {"measurement": "LC50", "setting": "[5]", "value": "> 10", "unit": "µg/mL"},
      {"measurement": "Insecticide Activity - Approximate LD50, GPA (Green Peach Aphid)", "setting": "[6]", "value": ".03%"},
      {"measurement": "Insecticide Activity - Approximate LD50, BA (Black Bean Aphid - direct spray)", "setting": "[7]", "value": ".002%"},
      {"measurement": "Insecticide Activity - Approximate LD50, CL (Cabbage Looper)", "setting": "[8]", "value": "> .1%"},
      {"measurement": "Insecticide Activity - Approximate LD50, TBW (Tobacco Budworm)", "setting": "[9]", "value": "> .1%"}
    ]}
  ]
}
